In patent US20180169030A1, “DRUG CARRIER AND METHOD OF FABRICATING THE SAME” (priority 2016, published 2018):

System: Hepatoma cells
Settings: 75 ppm boron-10
Description: The drug carrier prepared in the above embodiments applied to the boron neutron capture therapy for cells was tested. The test method is described in detail below. Referring to FIG. 8, Tsing Hua Open-pool Reactor (THOR) 200 was used. An acrylic plate 204 was used as a carrier of 96-well plate 210. Hepatoma cells 206 were placed in the 96-well plate. Thermal neutrons 208 were used to irradiate the 96-well plate 210. An acrylic cube 202 was placed behind the carrier to slow down the thermal neutrons 208, so as to shorten the irradiation time.
Group I represents culture medium. Group J represents a boric acid solution containing 75 ppm of boron-10. Group K represents the drug carrier covering boric acid containing 75 ppm of boron-10. Group L represents the drug carrier without covering boric acid. The vertical axis is cell number percentage (%). The thermal neutron irradiation time was 27.67 minutes. After the thermal neutron irradiation, changes in cell numbers of each group were tested using the cell toxicity analysis kit (Wst-1 assay) after 24 hours.

boric acid
part of mortality rate caused by toxicity of boric acid / by drug carrier (not by irradiation): 40%
part of mortality rate caused by irradiation of thermal neutron (irradiation time 27.67 minutes): 15%
mortality rate after irradiation of thermal neutron (irradiation time 27.67 minutes, Wst-1 after 24 hours): 55%
